In patent publication US20190062709A1, “METHODS AND COMPOSITIONS FOR MAINTENANCE OF HEMATOPOIETIC STEM CELLS WITH PRESERVATION OF SELF-RENEWAL CAPACITY” (The Trustees of Columbia University in the City of New York, priority 2017, published 2019):
Where two headings read alike, the source gives them in different places.

Assays:
HSCs [1] = test: Calcium concentration of HSCs treated with metabolic inhibitors; format: cell-based, mouse
murine HSCs = conditions: literature report; cited from earlier work
murine AHR = molecular target: T1, murine AHR (Mus musculus, UniProt P30561); conditions: literature report; cited from earlier work
T1 sequence (P30561 10-848): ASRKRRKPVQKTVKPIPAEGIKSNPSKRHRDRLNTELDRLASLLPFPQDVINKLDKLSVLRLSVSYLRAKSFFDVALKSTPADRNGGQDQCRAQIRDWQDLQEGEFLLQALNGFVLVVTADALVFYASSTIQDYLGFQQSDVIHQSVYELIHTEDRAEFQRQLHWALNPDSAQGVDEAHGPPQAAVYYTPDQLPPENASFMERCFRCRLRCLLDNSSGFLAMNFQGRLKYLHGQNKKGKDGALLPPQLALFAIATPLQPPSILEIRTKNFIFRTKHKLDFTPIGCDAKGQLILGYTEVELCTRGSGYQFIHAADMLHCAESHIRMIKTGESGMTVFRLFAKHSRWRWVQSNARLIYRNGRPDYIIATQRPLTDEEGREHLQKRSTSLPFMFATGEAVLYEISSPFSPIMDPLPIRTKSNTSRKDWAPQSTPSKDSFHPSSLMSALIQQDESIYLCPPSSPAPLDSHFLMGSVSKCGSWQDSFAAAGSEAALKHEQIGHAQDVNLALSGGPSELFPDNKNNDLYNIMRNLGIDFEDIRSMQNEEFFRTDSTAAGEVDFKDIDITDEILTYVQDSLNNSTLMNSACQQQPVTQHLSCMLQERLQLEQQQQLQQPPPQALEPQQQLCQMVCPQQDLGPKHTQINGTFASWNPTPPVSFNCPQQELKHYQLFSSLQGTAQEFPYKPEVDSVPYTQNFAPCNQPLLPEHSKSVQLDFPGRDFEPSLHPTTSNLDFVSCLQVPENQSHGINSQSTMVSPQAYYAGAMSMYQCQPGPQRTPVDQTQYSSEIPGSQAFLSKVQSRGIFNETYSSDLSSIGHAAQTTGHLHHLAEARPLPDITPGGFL

[2] = tested on: human progenitor/stem cells; conditions: literature report; cited from earlier work
[3] = 37° C., assumed based on previous studies; read-out: Indo-1 dissociation constant (Kd); cited from earlier work
HSCs [4] = test: Competitive transplantation of cultured HSCs into irradiated recipient mice (donor chimerism); format: in vivo, mouse; conditions: 10% of culture transplanted
Protocol: Long term LT-HSCs cultures were carried out using Ca^2+-free DMEM (U.S. Biologicals) reconstituted with 4.5 g/L glucose and 1.1 g/L sodium bicarbonate at pH 7.4. Complete media was prepared with Ca^2+-free DMEM supplemented with 1× StemPro34 SFM (Invitrogen), 10 mM HEPES, 200 ng/mL of recombinant m-SCF and 30 ng/mL m-TPO (Peptrotech, Rocky Hill, N.J.). Media of various calcium concentrations was prepared as serial dilutions from stock complete media at 2 mM. Cultures were initiated with 3000-4000 purified HSCs (LSK+CD48−F1t3−CD150+) and cultured in round bottom 96 well plates with 150 uL of media in 5% O2 at 37° C. Half of the media volume was changed every 3 days and split 1:2 every 7 days. Cultures were counted at the time of phenotypic flow cytometric percentage analysis to determine phenotypic HSC counts at the end of culture. Based on calculations, HSC yields were expressed as phenotypic HSC at the end of culture divided by phenotypic HSC count at the start of culture.
All transplant experiments were initiated with LT-HSC cultures consisting of CD45.1 donor HSCs. […]
To test HSC function, irradiated recipient mice were competitively transplanted with 10% of the cultures, either at initiation or after 2 weeks of culture, and analyzed 15 weeks after transplantation. […] Donor contribution correlated with calculated phenotypic HSC cell dose transplanted (FIG. 2D). […]

[5] = purified HSCs treated 15 min, compared to DMSO control

For O=C(O)CI [iodoacetic acid], which “Cai^2+ of HSCs” value (HSCs [1]) is on record?
Its value is “increased”.

For CC(C)n1cnc2c(NCCc3ccc(O)cc3)nc(-c3csc4ccccc34)nc21 [SR1, stemregenin 1], which “expansion of murine HSCs” value (murine HSCs) is on record?
Its value is “does not lead to expansion”.

And the “inhibition of murine AHR” value (murine AHR)?
Its value is “does not inhibit”.

And the “expansion of human progenitor/stem cells capable of repopulating irradiated immunodeficient mice” value [2]?
The value was “led to expansion”.

Which “Cai^2+ of HSCs” value (HSCs [1]; [5]) does the source give for CC[C@H]1/C=C/C=C/C[C@@H](C)[C@H](O)[C@@](C)(O)C(=O)[C@@H](C)[C@H](O)[C@@H](C)C(=O)[C@@H](C)[C@H](O)[C@@H](C)/C=C/C(=O)O[C@@H]2[C@H](C)[C@H](CC1)O[C@]1(CC[C@H](C)[C@H](C[C@@H](C)O)O1)[C@H]2C [oligomycin] here?
Its value is “not inhibition of mitochondrial respiration increased”.

Which Kd [3] does the source give for Cc1ccc(N(CC(=O)O)CC(=O)O)c(OCCOc2cc(-c3cc4ccc(C(=O)O)cc4[nH]3)ccc2N(CC(=O)O)CC(=O)O)c1 [Indo-1] here?
Its Kd is 237 nM.

Which “Cai^2+ of HSCs at higher doses” value (HSCs [1]; higher doses of the mitochondrial inhibitors, 15 min) does the source give for N#CC(C#N)=NNc1ccc(OC(F)(F)F)cc1 [FCCP] here?
Its value is “further reduction”.

And the “Cai^2+ of HSCs” value (HSCs [1]; [5])?
Its value is “not inhibition of mitochondrial respiration increased”.

What does the source list for O=C(O)/C(S)=C/c1ccc(I)cc1 [PD150606, (Z)-3-(4-Iodophenyl)-2-mercapto-2-propenoic acid]?
competitive repopulation capacity (HSCs [4]; PD150606 25 μM added to high calcium (2.0 mM) 2-week HSC cultures): increased competitive repopulation capacity; competitive repopulation capacity (HSCs [4]; PD150606 25 μM added to low calcium (0.02 mM) 2-week HSC cultures): no effect
